Experimental data: ChEMBL document CHEMBL1201862, “PubChem BioAssay data set” (2004)
Values belong to the compound of their own block, whether it stands above or below them. Active and inactive are the calls of the source.

Assays:
[1] = HEK293 cell cytotoxicity, dose response, cytotoxicity control, plate reader, cherry-picked samples (AID 743446); type: functional, cell-based
[2] = MC4R antagonists, dose response, counter-screen for LGR2 antagonist project, cell-based, plate reader, cherry pick (AID 743444); type: functional;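 also: transfected HEK 293 cells stimulated with alpha-MSH peptide; potency of inhibitors of the alpha-MSH evoked signal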
[3] = HepG2 cell cytotoxicity, dose response, cytotoxicity control, plate reader, cherry-pick, antagonist series (AID 743416); type: functional, cell-based
[4] = LGR2 antagonists, dose response, cell-based, HEK293, CRE-luciferase reporter, cherry pick, set 2 (AID 743343); type: functional;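 also: transfected cells were stimulated with diluted bursicon conditioned medium after compound addition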
[5] = target: T1, Oxysterols receptor LXR-beta (Homo sapiens, UniProt P55055); type: functional, cell-based;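 also: Cell-based luminescence dose-response assay of agonist activity at LXR, run as a confirmatory counterscreen to a daf-12 agonist screen; HEK293 cells with Gal4-LXR fusion and GAL4-driven luciferase reporter; agonist potency from rising luciferase signal of a Gal4-LXR reporter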
T1 sequence (P55055 whole entry): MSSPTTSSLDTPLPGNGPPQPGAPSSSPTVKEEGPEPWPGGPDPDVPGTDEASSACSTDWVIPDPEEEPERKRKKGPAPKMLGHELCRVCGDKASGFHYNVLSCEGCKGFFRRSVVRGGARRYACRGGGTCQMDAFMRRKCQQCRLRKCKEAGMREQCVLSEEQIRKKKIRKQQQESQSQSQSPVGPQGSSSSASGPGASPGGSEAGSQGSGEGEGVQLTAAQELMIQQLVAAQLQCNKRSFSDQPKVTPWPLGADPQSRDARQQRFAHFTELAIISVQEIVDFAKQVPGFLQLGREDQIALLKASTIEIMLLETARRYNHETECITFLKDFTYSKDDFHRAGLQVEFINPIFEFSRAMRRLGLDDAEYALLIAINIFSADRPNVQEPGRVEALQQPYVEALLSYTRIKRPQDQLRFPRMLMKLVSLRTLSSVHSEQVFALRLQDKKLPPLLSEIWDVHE

[6] = A549 cell cytotoxicity, dose response, cytotoxicity control, plate reader, cherry-pick, antagonist series (AID 743412); type: functional, cell-based
[7] = target: Potassium channel subfamily K member 9 (Homo sapiens, UniProt Q9NPC2); assay: TASK3 (KCNK9) channel inhibitors, thallium flux, SAR follow-up, selectivity assay for TASK1 inhibitor project, cell-based, FluxOR thallium flux, concentration-response (AID 652211); type: functional;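 also: potency is for inhibitors of the channel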
Chain of Potassium channel subfamily K member 9 (Q9NPC2 whole entry): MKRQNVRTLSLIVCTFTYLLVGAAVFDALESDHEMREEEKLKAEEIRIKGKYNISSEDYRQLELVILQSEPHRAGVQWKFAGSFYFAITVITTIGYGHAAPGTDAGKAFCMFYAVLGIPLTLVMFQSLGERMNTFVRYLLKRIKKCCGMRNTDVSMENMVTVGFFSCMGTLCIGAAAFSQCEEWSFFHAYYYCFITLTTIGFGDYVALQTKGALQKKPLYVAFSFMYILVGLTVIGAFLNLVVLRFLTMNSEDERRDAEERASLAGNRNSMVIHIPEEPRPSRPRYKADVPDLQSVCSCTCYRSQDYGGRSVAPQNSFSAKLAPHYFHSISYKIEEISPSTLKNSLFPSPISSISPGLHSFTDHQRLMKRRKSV

Paired box protein Pax-8 = Paired box protein Pax-8 (Homo sapiens, UniProt Q06710); assay: inhibitors of PAX8-driven TPO luciferase reporter, dose response, RMG-I cells, cherry-pick (AID 687027); type: functional, cell-based;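 also: luciferase reporter driven by Pax8 target thyroperoxidase promoter measured by SteadyGlo luminescence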
Chain of Paired box protein Pax-8 (Q06710 whole entry): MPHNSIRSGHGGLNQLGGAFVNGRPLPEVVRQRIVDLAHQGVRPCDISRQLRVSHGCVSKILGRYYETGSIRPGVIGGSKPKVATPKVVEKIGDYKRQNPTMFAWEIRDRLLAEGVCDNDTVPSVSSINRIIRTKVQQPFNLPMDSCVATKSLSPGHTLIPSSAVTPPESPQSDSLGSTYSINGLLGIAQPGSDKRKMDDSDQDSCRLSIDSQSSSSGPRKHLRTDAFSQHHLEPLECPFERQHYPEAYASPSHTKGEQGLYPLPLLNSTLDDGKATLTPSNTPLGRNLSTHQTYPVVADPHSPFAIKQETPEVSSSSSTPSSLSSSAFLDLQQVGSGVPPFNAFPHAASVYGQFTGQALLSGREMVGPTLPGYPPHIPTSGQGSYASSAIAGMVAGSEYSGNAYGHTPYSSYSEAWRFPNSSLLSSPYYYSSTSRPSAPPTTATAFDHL

[8] = NIH:OVCAR-3 ovarian cancer cell cytotoxicity, dose response, PAX8 inhibitor project, plate reader, dry powder samples (AID 743044); type: functional, cell-based
Protein skinhead-1 = target: T2, Protein skinhead-1 (Caenorhabditis elegans, UniProt P34707); type: functional
T2 sequence (P34707 whole entry): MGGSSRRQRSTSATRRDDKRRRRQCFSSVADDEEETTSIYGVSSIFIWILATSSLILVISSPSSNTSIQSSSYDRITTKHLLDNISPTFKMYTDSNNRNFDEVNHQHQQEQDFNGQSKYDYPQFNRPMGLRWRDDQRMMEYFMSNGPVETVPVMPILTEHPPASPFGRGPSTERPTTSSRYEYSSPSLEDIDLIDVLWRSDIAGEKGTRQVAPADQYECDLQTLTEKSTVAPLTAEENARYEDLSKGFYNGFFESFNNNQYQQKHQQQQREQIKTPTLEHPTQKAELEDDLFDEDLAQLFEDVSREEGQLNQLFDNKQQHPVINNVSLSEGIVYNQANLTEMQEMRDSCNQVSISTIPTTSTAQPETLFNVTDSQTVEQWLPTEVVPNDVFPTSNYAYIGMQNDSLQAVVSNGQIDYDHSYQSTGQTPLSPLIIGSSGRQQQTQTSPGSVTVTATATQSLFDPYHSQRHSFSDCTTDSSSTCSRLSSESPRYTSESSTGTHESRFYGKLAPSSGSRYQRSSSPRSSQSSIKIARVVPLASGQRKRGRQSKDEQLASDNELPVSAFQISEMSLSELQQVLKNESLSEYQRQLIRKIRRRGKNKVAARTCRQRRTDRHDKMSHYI

HEK293 = assay: inhibitors of LMP1-driven NF-kB reporter, dose response, cell-based, HEK293, luciferase, cherry-pick (AID 588343); type: functional; details: Homo sapiens
[9] = target: Luciferin 4-monooxygenase (Photinus pyralis, UniProt P08659); assay: Counter Screen for Luciferase-based Assay Positives. [Related pubchem assays: 620, 618, 411 ]
Chain of Luciferin 4-monooxygenase (P08659 whole entry): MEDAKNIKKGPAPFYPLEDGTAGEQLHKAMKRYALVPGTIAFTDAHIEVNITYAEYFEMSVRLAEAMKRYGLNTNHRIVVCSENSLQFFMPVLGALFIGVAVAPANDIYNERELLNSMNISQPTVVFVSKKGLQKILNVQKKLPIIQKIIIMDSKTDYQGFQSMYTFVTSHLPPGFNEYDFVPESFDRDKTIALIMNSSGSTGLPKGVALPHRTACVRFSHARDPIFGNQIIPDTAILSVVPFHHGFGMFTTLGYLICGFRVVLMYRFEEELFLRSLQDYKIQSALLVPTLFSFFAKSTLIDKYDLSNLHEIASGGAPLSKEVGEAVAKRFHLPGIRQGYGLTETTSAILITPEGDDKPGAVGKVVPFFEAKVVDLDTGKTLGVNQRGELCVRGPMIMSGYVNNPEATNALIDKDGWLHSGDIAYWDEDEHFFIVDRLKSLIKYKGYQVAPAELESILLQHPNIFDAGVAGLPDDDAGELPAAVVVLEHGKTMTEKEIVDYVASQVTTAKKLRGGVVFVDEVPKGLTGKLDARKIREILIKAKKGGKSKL

HT-1080 = assay: cytotoxicity in HT1080 fibrosarcoma cells, cell-based, fluorescence readout (AID 620); type: functional; details: Homo sapiens
[10] = target: T3, ATP-dependent translocase ABCB1 (Homo sapiens, UniProt P08183); assay: ABCG2 efflux pump inhibitor potency, dose response, Ig-MXP3 cells, JC-1, flow cytometry, set 2 (AID 504566); type: functional; details: read-out: EC50_MICROM_;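 also: flow cytometry median green fluorescence of retained JC-1 dye; potency of efflux pump inhibition measured as rising substrate retention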
T3 sequence (P08183 whole entry): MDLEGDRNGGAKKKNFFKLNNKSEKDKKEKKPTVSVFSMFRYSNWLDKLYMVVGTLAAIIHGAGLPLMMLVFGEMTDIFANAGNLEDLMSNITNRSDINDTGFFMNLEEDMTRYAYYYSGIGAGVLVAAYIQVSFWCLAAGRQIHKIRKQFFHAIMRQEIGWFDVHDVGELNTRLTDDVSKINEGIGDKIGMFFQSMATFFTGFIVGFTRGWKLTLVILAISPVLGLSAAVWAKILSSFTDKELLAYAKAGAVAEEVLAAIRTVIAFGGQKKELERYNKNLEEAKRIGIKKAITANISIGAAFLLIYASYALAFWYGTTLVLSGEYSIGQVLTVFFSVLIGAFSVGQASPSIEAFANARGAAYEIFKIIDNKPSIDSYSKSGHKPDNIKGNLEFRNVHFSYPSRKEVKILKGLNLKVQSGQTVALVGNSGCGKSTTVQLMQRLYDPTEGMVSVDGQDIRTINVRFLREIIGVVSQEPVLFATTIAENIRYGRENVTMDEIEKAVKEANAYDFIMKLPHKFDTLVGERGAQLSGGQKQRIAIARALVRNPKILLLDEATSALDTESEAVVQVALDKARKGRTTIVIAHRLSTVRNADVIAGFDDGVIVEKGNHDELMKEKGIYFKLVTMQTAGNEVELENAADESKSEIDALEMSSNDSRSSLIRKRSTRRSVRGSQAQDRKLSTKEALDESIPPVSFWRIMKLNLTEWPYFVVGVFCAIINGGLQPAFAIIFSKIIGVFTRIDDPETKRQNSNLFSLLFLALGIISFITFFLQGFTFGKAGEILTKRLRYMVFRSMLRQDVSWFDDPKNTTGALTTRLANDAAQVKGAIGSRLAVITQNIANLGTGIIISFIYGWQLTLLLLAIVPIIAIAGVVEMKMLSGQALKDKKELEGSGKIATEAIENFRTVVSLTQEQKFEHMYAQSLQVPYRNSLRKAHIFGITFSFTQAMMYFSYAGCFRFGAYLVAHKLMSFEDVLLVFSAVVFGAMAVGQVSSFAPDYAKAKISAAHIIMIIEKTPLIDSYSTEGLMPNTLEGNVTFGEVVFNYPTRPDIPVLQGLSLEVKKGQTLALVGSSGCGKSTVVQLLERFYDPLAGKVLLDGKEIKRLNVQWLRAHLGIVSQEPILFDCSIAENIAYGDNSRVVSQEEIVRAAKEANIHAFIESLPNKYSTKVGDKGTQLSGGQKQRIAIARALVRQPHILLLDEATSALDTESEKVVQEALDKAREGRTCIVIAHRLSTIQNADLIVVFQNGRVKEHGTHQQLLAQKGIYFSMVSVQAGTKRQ

[11] = target: T3, ATP-dependent translocase ABCB1; assay: ABCB1 efflux inhibitor potency, dose response, Jurkat-DNR cells, JC-1, flow cytometry, set 2 (AID 504569); type: functional; details: read-out: EC50_MICROM_;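 also: potency of pump inhibitors that raise cellular JC-1 green fluorescence up to the nicardipine level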

SMILES: Cc1cc2ncc(-c3cccs3)nc2cc1C
AC50 [1]: 49.4 µM (active) | AC50 [2]: 4.22 µM (active) | EC50 (cells): > 67.6 µM (inactive) | AC50 [3]: > 52 µM (inactive) | AC50 [4]: 4.64 µM (active) | EC50 [5]: > 67.6 µM (inactive) | AC50 [6]: 25.7 µM (active)

IC50 [7]: 1.17 µM (active)
SMILES: COc1ccccc1C(=O)Nc1cccc(NC(=O)c2ccccc2OC(F)(F)F)c1

SMILES: C[C@H](CO)N1C[C@H](C)[C@@H](CN(C)Cc2ccc(C(F)(F)F)cc2)OCCCC[C@H](C)Oc2ccc(NC(=O)Cc3ccccc3)cc2C1=O
AC50 (Paired box protein Pax-8): 9.66 µM (active) | AC50 [8]: 30.6 µM (active)

SMILES: Brc1ccc(-c2nc(-c3ccccn3)no2)o1
AC50 [2]: 3.84 µM (active) | IC50 (Protein skinhead-1): 72.1 µM (inactive) | EC50 (cells): > 67.5 µM (inactive) | AC50 (HEK293): 2.33 µM (active) | AC50 [3]: > 52 µM (inactive) | AC50 [4]: 2.92 µM (active) | EC50 [5]: > 67.5 µM (inactive) | AC50 [6]: > 52 µM (inactive) | EC50 [9]: 2.58 µM (active) | EC50 (HT-1080): > 50 µM (not active)

EC50 [10]: 1.63 µM (active) | EC50 [11]: 3.4 µM (active)
SMILES: O=C(c1ccsc1)N1CCN(c2cc(-c3ccccc3)nc3cc(-c4cccc(Cl)c4)nn23)CC1

SMILES: Brc1ccccc1C1NC(c2ccccc2)=NO1 (centres undefined)
EC50 (cells): > 67.5 µM (inactive) | EC50 [5]: > 67.5 µM (inactive)
